From US20240033278A9, “CONJUGATE GROUP AND CONJUGATE” (MEDSHINE DISCOVERY INC., priority 2020, published 2024)

Target: T1, human-derived anti-asialoglycoprotein receptors (ASGPR) (Homo sapiens, UniProt P07306)
T1 construct: purchased Sino Biological 10773-H07H
T1 sequence (P07306 1-291): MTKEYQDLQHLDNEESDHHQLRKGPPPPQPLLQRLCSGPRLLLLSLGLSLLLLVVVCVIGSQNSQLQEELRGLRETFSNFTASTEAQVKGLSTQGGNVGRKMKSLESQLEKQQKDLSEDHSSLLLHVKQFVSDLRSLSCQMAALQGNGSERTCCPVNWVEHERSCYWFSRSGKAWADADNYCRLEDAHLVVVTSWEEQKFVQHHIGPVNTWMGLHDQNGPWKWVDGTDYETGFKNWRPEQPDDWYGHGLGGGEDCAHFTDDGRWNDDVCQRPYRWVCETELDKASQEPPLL
Experiment: Binding affinity of the compound to human-derived ASGPR by surface plasmon resonance (SPR)
Description: Assay Example 1. Test of the Binding Affinity of the Compound to Human-Derived […]
The binding affinity of the compound to human-derived […] (ASGPR) was tested by surface plasmon resonance (SPR) technique, and the kinetic KD value of the compound was used as an indicator to evaluate the binding affinity of the compound to ASGPR, thereby reflecting the ability of the compound to specifically target hepatocytes for delivery of nucleic acid molecules.
Asialoglycoprotein Receptor Protein, Mouse, Recombinant (His Tag), Sino biological-50083-M07H-50 μg; Asialoglycoprotein Receptor Protein, Human, Recombinant (His Tag), Sino biological-10773-H07H-50 μg
3.1 The two proteins were respectively dissolved in 1×PBS to obtain a solution of 0.25 mg/mL, and the compound to be tested was dissolved in DMSO. The running buffer (10 mM HEPES, 150 mM NaCl, 0.05% Tween 20, 50 mM CaCl2, 50 μM EDTA) was prepared and filtered through a 0.22 μm membrane.
3.2 The NiHC 1500M Chip was docked into a biacore, and the system was switched to a running buffer.
3.3 Protein labeling: The chip was first treated with 350 mM EDTA at 30 μl/min for 5 min, rinsed with running buffer for 2 min, and then bound with 40 mM NiCl2 at 30 μl/min for 2 min. A protein diluted to 5 μg/mL with running buffer was then labeled on the chip at a flow rate of 10 μl/min for a final labeling amount of 1500-2000 RU.
3.4 The instrument system was switched to a running buffer containing 2% DMSO.
3.5 The compound with a starting concentration of 2 μM was serially diluted 2-fold with a running buffer containing 2% DMSO to obtain 9 concentrations. The final concentration of DMSO was 2%.
3.6 Testing: For each cycle, the compound was bound for 60 s and dissociated for 180 s at a flow rate of 50 μl/min. The compound was tested in order of concentration from low to high. Before the gradient testing of the compound, 4 cycles of blank (running buffer with 2% DMSO) were introduced, and solvent correction was performed with 1.5%-3.5% DMSO (6 concentrations).
The data were analyzed with Biacore Insight Evaluation Software, kinetics was analyzed with a 1:1 model, and affinity was analyzed with a steady state affinity model.

binding affinity in the SPR assay (in words) (SPR): good binding affinity | Kd (SPR (Biacore 8k), kinetic KD, 1:1 model, His-tagged recombinant protein on NiHC 1500M chip): 15.6 nM | kon (SPR, association rate constant, 1:1 model, read-out: Ka): 1.08e+06 M⁻¹ s⁻¹ | koff (SPR, dissociation rate constant, 1:1 model): 0.0168 s⁻¹
Structure (SMILES): COc1ccc(C(OC[C@@H]2C[C@@H](O)CN2C(=O)CCCCCCCCCCOCC(COCCC(=O)NCCCNC(=O)CCCCOC2OC(CO)C(O)C(O)C2NC(C)=O)(COCCC(=O)NCCCNC(=O)CCCCOC2OC(CO)C(O)C(O)C2NC(C)=O)NC(=O)CCC(=O)NCCCNC(=O)CCCCOC2OC(CO)C(O)C(O)C2NC(C)=O)(c2ccccc2)c2ccc(OC)cc2)cc1 (stereo partly drawn) [Compound D-01-M]
